Measured values taken from patent US6838415B1, “Substituted benzoylisoxazoles and the use thereof as herbicides” (Bayer Aktiengesellschaft, priority 1999, dated 2005).

Legend:
[1] = logP by HPLC on reverse-phase column (C 18), acidic range; format: physicochemical; settings: for logP a): acidic range: 0.1% aqueous phosphoric acid/acetonitrile gradient, HPLC C 18, 43° C.; for logP: HPLC reverse-phase column (C 18), 43° C., acidic range: 0.1% aqueous phosphoric acid, acetonitrile; data labelled a)
Protocol: (§1) The logP values given in Table 1 were determined in accordance with EE Directive 79/831 Annex V.A8 by HPLC (High Performance Liquid Chromatography) using a reverse-phase column (C 18). Temperature: 43° C. (a) Mobile phases for the determination in the acidic range: 0.1% aqueous phosphoric acid, acetonitrile; linear gradient from 10% acetonitrile to 90% acetonitrile—the corresponding data in Table 1 are labelled ^a). Calibration was carried out using unbranched alkan-2-ones (with from 3 to 16 carbon atoms) whose logP values are known (determination of the logP values by the retention times using linear interpolation between two successive alkanones). The logP values given in Table 3 were determined in accordance with EEC Directive 79/831 Annex V.A8 by HPLC (High Performance Liquid Chromatography) using a reverse-phase column (C 18). Temperature: 43° C. (a) Mobile phases for the determination in the acidic range: 0.1% aqueous phosphoric acid, acetonitrile; linear gradient from 10% acetonitrile to 90% acetonitrile—the corresponding data in Table 3 are labelled ^a). Calibration was carried out using unbranched alkan-2-ones (with from 3 to 16 carbon atoms) whose logP values are known (determination of the logP values by the retention times using linear interpolation between two successive alkanones).

weeds [2] = test: Post-emergence test, activity against weeds; format: in vivo; settings: test plants 5-15 cm sprayed, rated after three weeks
Protocol: (§2) Post-emergence Test [table] To produce a suitable preparation of active compound, 1 part by weight of active compound is mixed with the stated amount of solvent, the stated amount of emulsifier is added and the concentrate is diluted with water to the desired concentration. Test plants which have a height of 5-15 cm are sprayed with the preparation of active compound such that the particular amounts of active compound desired are applied per unit area. The concentration of the spray liquor is chosen so that the particular amounts of active compound desired are applied in 1000 l of water/ha After three weeks, the degree of damage to the plants is rated in % damage in comparison to the development of the untreated control. The figures denote: [table]

weeds [3] = test: Pre-emergence test, action against weeds; format: in vivo; settings: soil sprayed about 24 hours after sowing, rated after three weeks
Protocol: (§3) Pre-emergence Test [table] To produce a suitable preparation of active compound, 1 part by weight of active compound is mixed with the stated amount of solvent, the stated amount of emulsifier is added and the concentrate is diluted with water to the desired concentration. Seeds of the test plants are sown in normal soil. After about 24 hours, the soil is sprayed with the preparation of active compound such that the particular amount of active compound desired is applied per unit area. The concentration of the spray liquor is chosen so that the particular amount of active compound desired is applied in 1000 liters of water per hectare. After three weeks, the degree of damage to the plants is rated in % damage in comparison to the development of the untreated control. The figures denote: [table]

[4] = tested on: crop plants, such as, for example, maize; test: Pre-emergence test, tolerance by crop plants; format: in vivo; settings: rated after three weeks
Protocol: as §3

[5] = tested on: crop plants, such as, for example, wheat; test: Post-emergence test, tolerance by crop plants; format: in vivo; settings: rated after three weeks
Protocol: as §2

[6] = logP by HPLC on reverse-phase column (C 18), neutral range; format: physicochemical; settings: neutral range: 0.01 molar aqueous phosphate buffer/acetonitrile gradient, HPLC C 18, 43° C.
Protocol: as §1, with “(b)” for “(a)”, “neutral” for “acidic”, “0.01 molar” for “0.1%”, “phosphate buffer solution,” for “phosphoric acid,”, “^b).” for “^a).”

logP a) [1] | logP [1] | Compound | other results
– | logP = 3.08^a) | CCOC(=O)c1ccc(C(F)(F)F)cc1Cn1nc(OC)n(C2CC2)c1=O [VII-91] | –
– | logP = 3.37^a) | COC(=O)c1ccc(C(F)(F)F)cc1Cn1c(=O)oc2ccccc21 [VII-121] | –
– | logP = 3.26^a) | COC(=O)c1ccc(C(F)(F)F)cc1Cn1nnc2ccccc2c1=O [VII-123] | –
– | logP = 3.29^a) | COC(=O)c1ccc(C(F)(F)F)cc1CN1C(=O)c2ccccc2S1(=O)=O [VII-122] | –

Further lines, the molecule ahead of its results:

Compound | logP a) [1] | logP [1] | other results
CCOc1nn(Cc2cc(C(F)(F)F)ccc2C(=O)c2c(C(=O)OC)noc2C2CC2)c(=O)n1C [Example 6] | (IA) logP = 3.32^a) | – | –
CCOc1nn(Cc2cc(Br)ccc2C(=O)c2c(C(=O)OC)noc2C2CC2)c(=O)n1C [Example 3] | (IA) logP = 3.15^a) | – | activity against weeds (degree of damage) (weeds [2]): very strong activity against weeds; action against weeds (degree of damage) (weeds [3]): strong action against weeds; tolerance by crop plants [4]: tolerated well; tolerance by crop plants [5]: tolerated well
COc1c(C(=O)c2cnoc2C2CC2)ccc(Cl)c1CN1CCN(C)C1=O [ID-2] | logP = 2.46^a) | – | –
COC(=O)c1noc(C2CC2)c1C(=O)c1ccc(Br)cc1Cn1nc(C(F)(F)F)n(C)c1=O [Example 5] | (IA) logP = 3.50^a) | – | –
CCOn1c(CC)nn(Cc2cc(Br)ccc2C(=O)c2c(C(=O)OC)noc2C2CC2)c1=O [Example 4] | – | – | logP b) [6]: (IA) logP = 3.36^b); activity against weeds (degree of damage) (weeds [2]): very strong activity against weeds; action against weeds (degree of damage) (weeds [3]): strong action against weeds; tolerance by crop plants [4]: tolerated well; tolerance by crop plants [5]: tolerated well
CN1CCN(Cc2c(Cl)ccc(C(=O)c3cnoc3C3CC3)c2Cl)C1=O [ID-1] | logP = 2.48^a) | – | –
CSc1nn(Cc2cc(C(F)(F)F)ccc2C(=O)c2cnoc2C2CC2)c(=O)n1C [Example 2, (5-cyclopropyl-isoxazol-4-yl)-[2-(4-methyl-3-methylthio-5-oxo-4,5-dihydro-[1,2,4]-triazol-1-yl-methyl)-4-trifluoromethyl-phenyl]-methanone] | – | – | chromatographic logP ([1]; reverse-phase HPLC column (C 18), pH=2.3, read-out: logP (determined at pH=2.3)): 2.94
COC(=O)c1noc(C2CC2)c1C(=O)c1ccc(C(F)(F)F)cc1Cn1nc(SC)n(C)c1=O [Example 7] | (IA) logP = 3.22^a) | – | –
